In PMC8635542, “Pharmacokinetic study on the interaction between succinic acid and irbesartan in rats and its potential mechanism” (Pharmaceutical Biology, 2021):

Test system: T1, CYP2C9
T1 construct: gene Cyp2c6
Conditions: diclofenac as substrate, NADPH-regenerating system (G-6-P, NADP+, G-6-PDH), MgCl2; succinic acid 0-100 μM

IC50: 13.9 µM
SMILES: O=C(O)CCC(=O)O [succinic acid]
